A short description of the data set: Thin film autoxidation of arachidonic acid with compounds 16-19 (HPLC). An excerpt: Subsequently, the autoxidation of compounds 16-19 and their effects on the autoxidation of arachidonic acid were investigated. In these experiments, a thin film assay method was employed. For each reaction, arachidonic acid was mixed with one of the synthetic compounds 16, 17, 18 or 19 at 1:1 ratio with or without the radical initiator, azobisisobutyronitrile (AIBN). A reverse phase HPLC method was used to simultaneously measure the relative amounts of arachidonic acid and the synthetic compounds 16, 17, 18 or 19 recovered following 60 or 70 hours or 7 days of thin film autoxidation.

As to `CCCCC/C=C\C/C=C\C/C=C\CCCCCOCC(=O)O` [Compound 16, (Z,Z,Z)-(octadeca-6,9,12-trienyloxy) acetic acid], the “Percentage of arachidonic acid recovered in the presence of the compound” value (shortened to “Percentage of arachidonic acid recovered”) (ratio 1:1, 10% AIBN 60 h) came to 17%; the “Percentage of arachidonic acid recovered” value (ratio 1:1, no additive 70 h) was 97%; the “Percentage of arachidonic acid recovered” value (ratio 1:1, no additive 7 day) stood at 23%. Further, the “Percentage of compound recovered (with arachidonic acid)” value is, setting by setting: (ratio 1:1, 10% AIBN 60 h) 11%; (ratio 1:1, no additive 70 h) 88%; (ratio 1:1, no additive 7 day) 27%.
On to `CC/C=C\C/C=C\C/C=C\CCCCCCCCOCC(=O)O` [Compound 17, (Z,Z,Z)-(octadeca-9,12,15-trienyloxy) acetic acid], for which the “Percentage of arachidonic acid recovered” value runs as follows: (ratio 1:1, 10% AIBN 60 h) 44%; (ratio 1:1, no additive 70 h) 92%; (ratio 1:1, no additive 7 day) 30%. For the same molecule, the “Percentage of compound recovered (with arachidonic acid)” value runs as follows: (ratio 1:1, 10% AIBN 60 h) 49%; (ratio 1:1, no additive 70 h) 102%; (ratio 1:1, no additive 7 day) 41%. Further, the “Autoxidation of arachidonic acid in the presence of the compound (in words)” value (ratio 1:1, with or without AIBN) is recorded as “substantial degree of autoxidation”.

The values are drawn from US6924309B2 (Children, Youth and Women's Health Service Incorporated, priority 1999, dated 2005).
